# Results as given in article PMC9653339, “Revisiting the anticancer properties of phosphane(9-ribosylpurine-6-thiolato)gold(I) complexes and their 9H-purine precursors” (Journal of Biological Inorganic Chemistry, 2022).
# Key:
# 518A2 melanoma cells [1] = assay: ROS assay (NBT); format: cell-based, human; settings: 518A2 cells, 1 µM and 5 µM, 24 h
# Protocol: To determine cellular ROS levels, 2,2′-bis(4-nitrophenyl)-5,5′-diphenyl-3,3′-(3,3′-dimethoxy-4,4′-diphenylene) di-tetrazolium chloride (NBT) was used. The assay is based on the reduction of a yellow NBT tetrazolium salt to a blue formazan dye. 518A2 melanoma cells were seeded in 96-well flat bottom microtiter plates (Sarstedt) with 100 µL per well and a cell density of 0.1 × 10^6 cells per mL. The cells were allowed to grow overnight, followed by substance treatment with 11.1 µL of tenfold concentrated test compound dilutions and further incubated for 24 h. Then plates were centrifuged, the medium was discarded and 50 µL per well of NBT solution (0.1% in PBS) was added. The plates were further incubated for 4 h, centrifuged again and the medium was discarded. After that, 50 µL of 2M KOH solution and 65 µL DMSO had been added per well, incubation was continued for 30 min. The absorbances at 630 nm und 405 nm were measured, using a plate reader (Tecan). The background absorbance (405 nm) was subtracted from the formazan signal (630 nm). The resulting absorbance is directly proportional to the reactive oxygen species level. The control value was normalized to 100% ROS level, and accordingly, the viability of cells treated with test compounds was calculated. Means and SD were calculated from at least four independent experiments.
# [2] = tested on: HCT-116^p53−/− (p53 knockout mutant) colon carcinoma cells; set-up: method as in Bär et al. [33]; settings: MTT, value marked * ref Bär et al. [33]; cited from earlier work
# [3] = tested on: HeLa cervix carcinoma cells; set-up: method as in Bär et al. [33]; settings: MTT, value marked * ref Bär et al. [33]; cited from earlier work
# 518A2 melanoma cells [4] = tested on: 518A2 melanoma cells; set-up: method as in Bär et al. [33]; settings: MTT, value marked * ref Bär et al. [33]; cited from earlier work
# [5] = tested on: human adult dermal fibroblasts HDFa; set-up: method as in Bär et al. [33]; settings: MTT, value marked * ref Bär et al. [33]; cited from earlier work
# [6] = tested on: circular plasmid pBR322 DNA; assay: Electrophoretic mobility shift assay (EMSA); format: binding
# Protocol: To distinguish whether the DNA interaction is of an electrostatic or covalent nature, a second DNA interaction assay was conducted. 1.5 µg of circular plasmid pBR322 DNA were incubated in TE buffer (10 mM Tris–Cl, 1 mM EDTA, pH 8.0) with different concentrations of test compounds (final concentrations; 5 µM, 10 µM, 25 µM and 50 µM), whereas a corresponding volume of DMSO was added to the control (0 µM) to a final volume of 20 µL of each sample. Samples ware incubated for 16 h at 37 °C and subjected to 1% agarose gel electrophoresis in 0.5 × TBE buffer (45 mM Tris–Cl, 45 mM boric acid, 1.25 mM EDTA, pH 8.0) for 4 h at 66 V. Afterward, the agarose gel was stained for 20 min with EtdBr (10 µg/mL in 0.5 TBE buffer) solution and the result documented using UV excitation.
# linear salmon sperm DNA = assay: Ethidium bromide saturation assay; format: binding
# Protocol: The interaction of the complexes with linear DNA was assessed using the EtdBr assay. Ethidium bromide intercalates into DNA enhancing its fluorescence, while intercalation is hindered by alterations of the DNA structure e.g., by small molecules interfering with DNA [17]. In wells of a 96-well black flat bottom microtiter plates a solution of 1 µg linear salmon sperm DNA (ThermoFisher) in TE buffer (10 mM Tris–Cl, 1 mM EDTA, pH 8.0) was treated with concentration series (final concentrations; 25 µM, 50 µM, 75 µM and 100 µM) of the compounds, a corresponding amount of DMSO was used as a control (0 µM). After an incubation period of 2 h at 37 °C, 100 µL per well of ethidium bromide solution (10 µg/mL in TE buffer) was added and the plate was incubated for 5 min in the dark. Background samples were prepared analogously but without DNA addition. EtdBr–DNA adduct fluorescence was monitored at an excitation wavelength of 535 nm and an emission wavelength of 595 nm. After background subtraction, changes in fluorescence intensity were calculated in relation to control (set to 100%). Means and SD were calculated from at least three independent experiments.
# 518A2 melanoma cells [7] = assay: Comet assay; format: cell-based, human; settings: 518A2 cells, 3.3 µM and 33 µM
# Protocol: 518A2 melanoma cells were seeded at a concentration of 0.03 × 10^6 cells/mL and a volume of 2 mL seeded in 6-well plates and incubated overnight (37 °C, 95% humidity, 5% CO2). In addition, slides were coated with 1.5% agarose and allowed to harden before being stored in a moist place until the next day. On the second day, a 100-fold substance pre-dilution was added to the cells followed by a further incubation of 3–5 h. The selected concentration range was based on Mendonça et al.. Subsequently, the cells were harvested with trypsin and the cell number was adjusted to 0.02 × 10^6 cells/mL. 0.5% agarose solution was prepared and tempered to a maximum of 50 °C. After mixing 0.4 mL of cell suspension with 1.2 mL of tempered agarose, 200 µL was pipetted onto each of the previously coated slides. After these had hardened, a one-hour incubation followed at 4 °C in lysis buffer. The samples were then electrophoresed at 11 V for 20 min and then incubated for 15 min in neutralization buffer. Finally, the DNA was stained with 30 µL each of 1% ethidium bromide for 30 min, before the slides were washed with PBS for subsequent documentation under a fluorescent microscope with UV excitation (Zeiss Axiovert 135, Ex/Em 300 nm/605 nm).
# [8] = Stability in cell culture medium by UV/Vis spectroscopy; format: physicochemical; settings: 0–30 min and 3 days
# From the text: In a further corroboration of the complex stability, the similarity of the chalcogens sulfur and selenium was exploited. The selenolato complex 10 was synthesized and examined for its stability under identical conditions. Since ^77Se is a 1/2 spin nucleus with roughly 8% natural abundance, its compounds can be investigated directly. Depending on whether a break in the Se–Au or the Au–PR3 bond would occur, the shift would change by several hundred ppm and serve as unequivocal evidence. […] In addition, we investigated the stability of complexes 1 and 5 as representatives of the series of purines and purine nucleosides, respectively, in cell culture medium by UV/Vis spectroscopy.
Compound,Intracellular ROS level (518A2 melanoma cells [1]),IC50 [2],IC50 [3],IC50 (518A2 melanoma cells [4]),IC50 [5],DNA interaction (EMSA) [6],DNA interaction (ethidium bromide saturation) (linear salmon sperm DNA),DNA damage (comet assay) (518A2 melanoma cells [7]),Stability in cell culture medium (UV/Vis) [8]
"CC(=O)OC[C@H]1O[C@@H]([S-])[C@H](OC(C)=O)[C@@H](OC(C)=O)[C@@H]1OC(C)=O.CCP(CC)CC.[Au+] [Auranofin, auranofin]",highest ROS levels,5 ± 0.2 µM,2.6 ± 0.4 µM,1.8 ± 0.03 µM,14 ± 1 µM,,,,
"OC[C@H]1O[C@@H](n2cnc3c([S][Au][PH](c4ccccc4)(c4ccccc4)c4ccccc4)ncnc32)[C@H](O)[C@@H]1O [Complex 5, (1,7-Dihydro-6H-purine-9-β-D-ribofuranosyl-6-thiolato) (triphenylphosphane) gold(I)]",,,,,,failed to reveal any positive effects,failed to reveal any positive effects,led to DNA damage,stable under the test conditions
